Drawing on patent US20080119515A1, “Heterocyclic Kinase Inhibitors: Methods of Use and Synthesis” (priority 2003, published 2008), this text covers IC50 for 52 compounds.

Some results are limits rather than exact numbers.

The target in this experiment is T1, ZAP-70 (Homo sapiens, UniProt P43403).
T1 sequence (P43403 1-619): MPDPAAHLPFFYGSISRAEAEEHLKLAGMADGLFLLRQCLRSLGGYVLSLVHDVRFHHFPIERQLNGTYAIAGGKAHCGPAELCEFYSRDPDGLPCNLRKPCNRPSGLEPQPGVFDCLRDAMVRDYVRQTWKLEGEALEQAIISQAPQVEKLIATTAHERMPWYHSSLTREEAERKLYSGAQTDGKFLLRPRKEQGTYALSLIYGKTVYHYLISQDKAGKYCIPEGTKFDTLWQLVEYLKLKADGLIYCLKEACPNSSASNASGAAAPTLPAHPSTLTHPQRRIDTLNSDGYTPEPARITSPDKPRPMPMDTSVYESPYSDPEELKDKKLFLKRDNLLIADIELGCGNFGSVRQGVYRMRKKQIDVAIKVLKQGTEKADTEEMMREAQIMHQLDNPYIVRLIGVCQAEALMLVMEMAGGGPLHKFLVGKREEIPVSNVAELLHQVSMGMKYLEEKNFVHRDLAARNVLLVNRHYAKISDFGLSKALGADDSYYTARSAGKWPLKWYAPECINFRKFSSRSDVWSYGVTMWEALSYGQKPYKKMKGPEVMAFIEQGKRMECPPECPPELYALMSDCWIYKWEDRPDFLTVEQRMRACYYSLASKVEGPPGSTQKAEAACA
Description: DELFIA assay (ZAP-70 kinase, phosphorylation of biotinylated poly(glu,tyr)). It counts as biochemical. Particulars: ZAP-70 DELFIA, class symbols; read-out: Activity (IC50 in vitro). Put shortly: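 3.1 nM ZAP-70 pre-incubated 10 min at room temperature with compound ([…]) and 62.5 nM biotinylated poly(glu,tyr) in 62.5 mM Mops pH 7.0, 12.5 mM MgCl2, 12.5% glycerol, 6.25% DMSO (pre-incubation concentrations); ATP added from 5 mM stock, 30 min reaction, EDTA stop. Phosphorylation read by DELFIA europium anti-phosphotyrosine fluorescence (340/615).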

The term IC50 denotes the concentration at which inhibition is half-maximal. As for `N#Cc1ccc(-c2ccc3nc(NCc4c(F)cccc4F)cc(C(=O)N4CCC[C@H]4CN4CCCC4)c3c2)cc1` [Compound 312], the half-inhibitory concentration (IC50) is 1 to 10 µM.
As for `COc1ccccc1CCNc1cc(C(=O)N2CCC[C@H]2CN2CCCC2)c2cc(-c3ccc(C#N)cc3)ccc2n1` [Compound 313], the figure is 1 to 10 µM; as for `N#Cc1ccc(-c2ccc3nc(NC(CO)Cc4ccccc4)cc(C(=O)N4CCC[C@H]4CN4CCCC4)c3c2)cc1` (stereo partly shown) [Compound 315], under 1 µM.
On to `N#Cc1ccc(-c2ccc3nc(N[C@H](CO)Cc4ccccc4)cc(C(=O)N4CCC[C@H]4CN4CCCC4)c3c2)cc1` [Compound 316], for which the IC50 was 1 to 10 µM.
In the case of `C[C@H](Nc1cc(C(=O)N2CCC[C@H]2CN2CCCC2)c2cc(-c3ccc(C#N)cc3)ccc2n1)[C@H](O)c1ccccc1` [Compound 317], the half-inhibitory concentration (IC50) is under 1 µM.
Regarding `N#Cc1ccc(-c2ccc3nc(NCc4ccc5c(c4)CCO5)cc(C(=O)N4CCC[C@H]4CN4CCCC4)c3c2)cc1` [Compound 318], the IC50 is 1 to 10 µM.
As for `N#Cc1ccc(-c2ccc3nc(NCc4cccc(OC(F)F)c4)cc(C(=O)N4CCC[C@H]4CN4CCCC4)c3c2)cc1` [Compound 319], the figure is under 1 µM; as for `N#Cc1ccc(-c2ccc3nc(NCCc4cccc(O)c4)cc(C(=O)N4CCC[C@H]4CN4CCCC4)c3c2)cc1` [Compound 320], 1 to 10 µM.
The figure for `N#Cc1ccc(-c2ccc3nc(NCc4cccc(O)c4)cc(C(=O)N4CCC[C@H]4CN4CCCC4)c3c2)cc1` [Compound 321] is 1 to 10 µM; for `O=C(c1cc(Sc2ccc(C(F)(F)F)cc2)nc2ccc(-c3ccc4c(c3)OCO4)cc12)N1CCC[C@H]1CN1CCCC1` [Compound 323] it is over 10 µM; for `O=C(c1cc(Sc2cccc(C(F)(F)F)c2)nc2ccc(-c3ccc4c(c3)OCO4)cc12)N1CCC[C@H]1CN1CCCC1` [Compound 324] it is under 1 µM.
As for `O=C(c1cc(Sc2ccc(OC(F)(F)F)cc2)nc2ccc(-c3ccc4c(c3)OCO4)cc12)N1CCC[C@H]1CN1CCCC1` [Compound 325], the figure is under 1 µM.
As to `O=C(c1cc(SCc2ccc(Cl)cc2)nc2ccc(-c3ccc4c(c3)OCO4)cc12)N1CCC[C@H]1CN1CCCC1` [Compound 326], the IC50 was under 1 µM.
As for `O=C(c1cc(N2CCC[C@H]2CO)nc2ccc(-c3ccc4c(c3)OCO4)cc12)N1CCC[C@H]1CN1CCCC1` [Compound 327], the figure is over 10 µM; as for `COC[C@H]1CCCN1c1cc(C(=O)N2CCC[C@H]2CN2CCCC2)c2cc(-c3ccc4c(c3)OCO4)ccc2n1` [Compound 328], 1 to 10 µM; as for `COC[C@@H]1CCCN1c1cc(C(=O)N2CCC[C@H]2CN2CCCC2)c2cc(-c3ccc4c(c3)OCO4)ccc2n1` [Compound 329], over 10 µM.
On to `C[C@@H](Nc1cc(C(=O)N2CCC[C@H]2CN2CCCC2)c2cc(-c3ccc4c(c3)OCO4)ccc2n1)c1ccc(Cl)cc1` [Compound 330], for which the IC50 is under 1 µM.
On to `C[C@H](Nc1cc(C(=O)N2CCC[C@H]2CN2CCCC2)c2cc(-c3ccc4c(c3)OCO4)ccc2n1)c1ccc(Cl)cc1` [Compound 331], for which the 50% inhibitory concentration (IC50) was under 1 µM.
As for `O=C(c1cc(NCc2ccc(C(F)(F)F)cc2)nc2ccc(-c3cncnc3)cc12)N1CCC[C@H]1CN1CCCC1` [Compound 332], the figure is over 10 µM.
The figure for `O=C(c1cc(NCc2ccc(C(F)(F)F)cc2)nc2ccc(-c3ccccn3)cc12)N1CCC[C@H]1CN1CCCC1` [Compound 333] is over 10 µM; for `O=C(c1cc(NCc2ccc(C(F)(F)F)cc2)nc2ccc(-c3cccnc3)cc12)N1CCC[C@H]1CN1CCCC1` [Compound 334] it is over 10 µM.
The figure for `O=C(c1cc(NCc2ccc(C(F)(F)F)cc2)nc2ccc(-c3cncc4ccccc34)cc12)N1CCC[C@H]1CN1CCCC1` [Compound 335] is over 10 µM; for `O=C(c1cc(NCc2ccc(C(F)(F)F)cc2)nc2ccc(-c3ncccn3)cc12)N1CCC[C@H]1CN1CCCC1` [Compound 336] it is over 10 µM.
For `Cc1ccsc1-c1ccc2nc(NCc3ccc(C(F)(F)F)cc3)cc(C(=O)N3CCC[C@H]3CN3CCCC3)c2c1` [Compound 337], the 50% inhibitory concentration (IC50) was over 10 µM.
As for `Cc1noc(C)c1-c1ccc2nc(NCc3ccc(C(F)(F)F)cc3)cc(C(=O)N3CCC[C@H]3CN3CCCC3)c2c1` [Compound 338], the figure is over 10 µM.
The figure for `N#Cc1cncc(-c2ccc3nc(NCc4ccc(C(F)(F)F)cc4)cc(C(=O)N4CCC[C@H]4CN4CCCC4)c3c2)c1` [Compound 339] is over 10 µM.
The figure for `Cn1ccnc1-c1ccc2nc(NCc3ccc(C(F)(F)F)cc3)cc(C(=O)N3CCC[C@H]3CN3CCCC3)c2c1` [Compound 340] is over 10 µM; for `O=C(c1cc(NCc2ccc(C(F)(F)F)cc2)nc2ccc(-c3nc(Cl)ns3)cc12)N1CCC[C@H]1CN1CCCC1` [Compound 341] it is over 10 µM.
`Cn1cncc1-c1ccc2nc(NCc3ccc(C(F)(F)F)cc3)cc(C(=O)N3CCC[C@H]3CN3CCCC3)c2c1` [Compound 342]: the IC50 is over 10 µM.
The figure for `N#Cc1ncccc1-c1ccc2nc(NCc3ccc(C(F)(F)F)cc3)cc(C(=O)N3CCC[C@H]3CN3CCCC3)c2c1` [Compound 343] is over 10 µM; for `O=C(c1cc(NCc2ccc(C(F)(F)F)cc2)nc2ccc(-c3ccc(F)c(F)c3)cc12)N1CCC[C@H]1CN1CCCC1` [Compound 344] it is under 1 µM; for `O=C(c1cc(NCc2ccc(C(F)(F)F)cc2)nc2ccc(-c3ccc(C(F)(F)F)cc3)cc12)N1CCC[C@H]1CN1CCCC1` [Compound 345] it is over 10 µM.
Consider `O=C(c1cc(NCc2ccc(C(F)(F)F)cc2)nc2ccc(-c3cccc(Cl)c3Cl)cc12)N1CCC[C@H]1CN1CCCC1` [Compound 346], for which the IC50 is over 10 µM.
The figure for `O=C(c1cc(NCc2ccc(C(F)(F)F)cc2)nc2ccc(-c3ccccc3Cl)cc12)N1CCC[C@H]1CN1CCCC1` [Compound 347] is over 10 µM; for `O=C(c1cc(NCc2ccc(C(F)(F)F)cc2)nc2ccc(-c3ccc4c(c3)OC(F)(F)O4)cc12)N1CCC[C@H]1CN1CCCC1` [Compound 348] it is under 1 µM; for `O=C(c1cc(NCc2ccc(C(F)(F)F)cc2)nc2ccc(-c3ccc4occc4c3)cc12)N1CCC[C@H]1CN1CCCC1` [Compound 349] it is under 1 µM.
The figure for `O=C(c1cc(NCc2ccc(C(F)(F)F)cc2)nc2ccc(-c3ccc(SC(F)(F)F)cc3)cc12)N1CCC[C@H]1CN1CCCC1` [Compound 350] is over 10 µM; for `N#Cc1csc2ccc(-c3ccc4nc(NCc5ccc(C(F)(F)F)cc5)cc(C(=O)N5CCC[C@H]5CN5CCCC5)c4c3)cc12` [Compound 351] it is under 1 µM; for `O=C(c1cc(NCc2ccc(C(F)(F)F)cc2)nc2ccc(-c3ccc4ncsc4c3)cc12)N1CCC[C@H]1CN1CCCC1` [Compound 352] it is under 1 µM.
In the case of `Cc1c(-c2ccc3nc(NCc4ccc(C(F)(F)F)cc4)cc(C(=O)N4CCC[C@H]4CN4CCCC4)c3c2)sc2ccc(Cl)cc12` [Compound 353], the IC50 is over 10 µM.
As for `O=C(c1cc(NCc2ccc(C(F)(F)F)cc2)nc2ccc(-c3nc4ccccc4[nH]3)cc12)N1CCC[C@H]1CN1CCCC1` [Compound 354], the figure is over 10 µM; as for `O=C(c1cc(NCc2ccc(C(F)(F)F)cc2)nc2ccc(-c3ccc(-c4cnco4)s3)cc12)N1CCC[C@H]1CN1CCCC1` [Compound 355], over 10 µM.
For the compound `O=C(c1cc(NCc2ccc(C(F)(F)F)cc2)nc2ccc(I)cc12)N1CCC[C@H]1CN1CCCC1` [Compound 356], the IC50 is over 10 µM.
As for `CNC[C@@H]1CCCN1C(=O)c1cc(NCc2ccc(C(F)(F)F)cc2)nc2ccc(-c3ccc4c(c3)OCO4)cc12` [Compound 357], the figure is 1 to 10 µM; as for `O=C(c1cc(NCc2ccc(C(F)(F)F)cc2)nc2ccc(-c3ccc4c(c3)OCO4)cc12)N1CCC[C@H]1CNC1CCCC1` [Compound 358], under 1 µM.
As for `O=C(c1cc(NCc2ccc(C(F)(F)F)cc2)nc2ccc(-c3ccc4c(c3)OCO4)cc12)N1CCC[C@H]1CNC1CCC1` [Compound 359], the figure is under 1 µM; as for `O=C(c1cc(NCc2ccc(C(F)(F)F)cc2)nc2ccc(-c3ccc4c(c3)OCO4)cc12)N1CCC[C@H]1CNC1CCCCC1` [Compound 360], 1 to 10 µM; as for `O=C(c1cc(NCc2ccc(C(F)(F)F)cc2)nc2ccc(-c3ccc4c(c3)OCO4)cc12)N1CCC[C@H]1CNC1CC1` [Compound 361], 1 to 10 µM.
As for `O=C(c1cc(NCc2ccc(C(F)(F)F)cc2)nc2ccc(-c3ccc4c(c3)OCO4)cc12)N1CCC[C@H]1CO` [Compound 362], the figure is over 10 µM.
As for `CN(Cc1ccccc1)c1cc(C(=O)N2CCC[C@H]2CN2CCCC2)cc(N(C)c2ccccc2)n1` [Compound 363], the IC50 was 1 to 10 µM.
As for `CN(CCc1ccccc1)c1cc(C(=O)N2CCC[C@H]2CN2CCCC2)cc(N(C)Cc2ccccc2)n1` [Compound 364], the figure is 1 to 10 µM; as for `CN(CCc1ccccc1)c1cc(C(=O)N2CCC[C@H]2CN2CCCC2)cc(/C=C/c2ccccc2)n1` [Compound 365], 1 to 10 µM.
